Experiments:
[1] = set-up: method as in PMID 31882661; conditions: cited from earlier work
[2] = test system: K. pneumoniae 667(phoP、pmrA、blaKPC); experiment: Checkerboard assay (MIC, FICI); assay type: cell-based; conditions: K. pneumoniae 667 (phoP, pmrA); antibiotic + β,β-Dim
Method: (§1) The FICI of β,β-Dim–colistin combination was determined by a checkerboard assay. Briefly, two-fold serial dilutions of β,β-Dim and colistin were prepared in a 96-well plate. After incubation at 37 °C for 18 h with bacterial suspension (10^6 CFU/mL), OD600 values were measured. FICI = (MICβ,β-Dim in combination/MICβ,β-Dim) + (MICcolistin in combination/MICcolistin). The synergistic effect of β,β-Dim with other antibiotics was measured in the same way. Synergy was considered to be an FICI ≤ 0.5.

E. coli 13f4(mcr-1) = experiment: Checkerboard assay (MIC, FICI); assay type: cell-based; conditions: E. coli 13f4 (mcr-1); antibiotic + β,β-Dim
Method: as §1

Compound	reduction of colistin MIC by combination with CCCP [1]	FICI of β,β-Dim combined with the antibiotic [2]	FICI of β,β-Dim combined with the antibiotic (E. coli 13f4(mcr-1))
N#CC(C#N)=NNc1cccc(Cl)c1 [CCCP, carbonyl cyanide 3-chloro phenyl hydrazone]	approximately 8 fold	–	–
CC1(C)S[C@@H]2[C@H](NC(=O)[C@H](N)c3ccccc3)C(=O)N2[C@H]1C(=O)O [ampicillin]	–	> 1	> 1
O=C(O)c1cn(C2CC2)c2cc(N3CCNCC3)c(F)cc2c1=O [ciprofloxacin]	–	> 1	> 1
C[C@H]1c2cccc(O)c2C(=O)C2=C(O)[C@]3(O)C(=O)C(C(N)=O)=C(O)[C@@H](N(C)C)[C@@H]3[C@@H](O)[C@@H]21 [doxycycline]	–	> 1	> 1
CS(=O)(=O)c1ccc([C@@H](O)[C@@H](CF)NC(=O)C(Cl)Cl)cc1 [florfenicol]	–	> 1	> 1
CNC(C)C1CCC(N)C(OC2C(N)CC(N)C(OC3OCC(C)(O)C(NC)C3O)C2O)O1 (stereo not drawn) [gentamicin]	–	> 1	> 1
CO[C@H]1/C=C/O[C@@]2(C)Oc3c(C)c(O)c4c(O)c(c(/C=N/N5CCN(C)CC5)c(O)c4c3C2=O)NC(=O)/C(C)=C\C=C\[C@H](C)[C@H](O)[C@@H](C)[C@@H](O)[C@@H](C)[C@H](OC(C)=O)[C@@H]1C [rifampicin]	–	> 1	> 1
CC[C@H]1OC(=O)C[C@@H](O)[C@H](C)[C@@H](O[C@@H]2O[C@H](C)[C@@H](O[C@H]3C[C@@](C)(O)[C@@H](O)[C@H](C)O3)[C@H](N(C)C)[C@H]2O)[C@@H](CC=O)C[C@@H](C)C(=O)/C=C/C(C)=C/[C@@H]1CO[C@@H]1O[C@H](C)[C@@H](O)[C@@H](OC)[C@H]1OC [tylosin]	–	> 1	> 1

Source: PMC12837263, “β,β-Dimethylacrylalkannin Restores Colistin Efficacy Against mcr- and TCS-Mediated Resistant Gram-Negative Bacteria via Membrane Disturbance” (Antibiotics, 2025)
